Earlier results as cited in patent publication US11179350B2, “Nutraceutical compositions comprising C60 and Cox-2 inhibitor” (priority 2018, dated 2021).

Assays:
[1] = test system: tumor growth and metastasis; settings: Prylutska et al. 2011
rats = settings: repeated oral administration (Baati et al. 2012)
[2] = more potent than Vitamin C
mice = mice (Quick et al. 2008)

What does the source list for `c12c3c4c5c1c1c6c7c2c2c8c3c3c9c4c4c%10c5c5c1c1c6c6c%11c7c2c2c7c8c3c3c8c9c4c4c9c%10c5c5c1c1c6c6c%11c2c2c7c3c3c8c4c4c9c5c1c1c6c2c3c41` [C60, Buckminsterfullerene]?
tumor growth and metastasis [1]: inhibit tumor growth and metastasis; prolongation of life (rats): prolong life; antioxidant potency relative to Vitamin C [2]: 172 times; prolongation of life (mice): prolong life
